Consider one compound from patent US10183953B2, “Substituted 2-azabicycles and their use as orexin receptor modulators” (Janssen Pharmaceutica NV, priority 2013, dated 2019).

One test concerns the target human orexin 2 receptor (Homo sapiens (Human), UniProt O43614). The test can be described thus: Human orexin 2 receptor radioligand binding ([3H]-EMPA, HEK293 membranes). As to conditions: human OX2 receptor binding; averages from between 2-20 runs; read-out: hOX2 Ki. How it is done:
(§1) The in vitro affinity of the compounds of the invention for the rat/human orexin 1 and human orexin 2 receptors was determined by competitive radioligand binding using [^3H]
(§2) Data are analyzed using pc-Sandy macro and graphed on Graphpad Prism 5. For analysis, each concentration point is averaged from triplicate values and the averaged values are plotted on Graphpad Prism. The IC50 was determined by applying the following equation (GraphPad Prism 5.0, SanDiego) for one site competition where X=log (concentration) and Y=specific binding. […] Graphpad Prism calculates Ki value from IC50 and the pre-determined Kd values for [^3H]-(1-(5-(2-fluoro-phenyl)-2-methyl-thiazol-4-yl)-1-((S)-2-(5-phenyl-(1,3,4)oxadiazol-2-ylmethyl)-pyrrolidin-1-yl)-methanone) and [3H]-EMPA. […]
HEK293 stably expressing human orexin 2 receptor (Genebank accession number NM_001526) were grown to confluency in DMEM (Hyclone, cat #SH30022), 10% FBS, 1×Pen/Strep, 1× NaPyruvate, 10 mM HEPES, 600 ug/ml G418 media on 150 cm^2 tissue culture plates, washed with 5 mM EDTA in PBS (HyClone Dulbecco's Phosphate Buffered Saline 1× with Calcium and Magnesium, Cat #SH30264.01, hereafter referred to simply as PBS) and scraped into 50 ml tubes. […] Total and nonspecific binding was determined in the absence and presence of 10 μM almorexant. […]

The target in a further test is human orexin 1 receptor (Homo sapiens (Human), UniProt O43613). In words: Human orexin 1 receptor radioligand binding (competitive, CHO membranes). To be noted: human OX1 receptor binding; averages from between 2-20 runs; read-out: hOX1 Ki. How it is done: as §1, §2
human orexin 1 receptor, sequence (O43613 whole entry): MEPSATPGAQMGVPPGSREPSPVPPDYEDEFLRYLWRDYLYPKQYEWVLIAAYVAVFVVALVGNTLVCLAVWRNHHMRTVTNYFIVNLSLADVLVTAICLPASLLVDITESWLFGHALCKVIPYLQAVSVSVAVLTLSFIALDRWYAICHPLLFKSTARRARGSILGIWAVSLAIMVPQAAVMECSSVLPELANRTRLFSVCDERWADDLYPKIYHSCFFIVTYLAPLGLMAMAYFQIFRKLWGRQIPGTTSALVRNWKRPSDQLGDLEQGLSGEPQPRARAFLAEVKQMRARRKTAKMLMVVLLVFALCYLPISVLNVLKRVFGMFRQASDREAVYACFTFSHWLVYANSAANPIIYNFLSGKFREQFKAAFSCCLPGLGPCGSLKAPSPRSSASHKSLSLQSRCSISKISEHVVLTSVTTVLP
(§3) After centrifugation (2K×G, 5 min at 4° C.), the supernatant was aspirated and the pellets frozen and stored at −80° C. […] Total and nonspecific binding was determined in the absence and presence of 10 μM almorexant. […] Plates were dried in 55° C. oven for 60 min, scintillation fluid was added, and the radioactivity was counted on a Topcount (Packard).

For the next test, the target named is rat orexin 1 receptor (Rattus norvegicus, UniProt P56718). The test can be described thus: Rat orexin 1 receptor radioligand binding (competitive, HEK293 membranes). As to conditions: rat OX1 receptor binding; averages from between 2-20 runs; read-out: rOX1 Ki. How it is done:
as §1, §2, §3

human orexin 2 receptor, sequence (O43614 whole entry): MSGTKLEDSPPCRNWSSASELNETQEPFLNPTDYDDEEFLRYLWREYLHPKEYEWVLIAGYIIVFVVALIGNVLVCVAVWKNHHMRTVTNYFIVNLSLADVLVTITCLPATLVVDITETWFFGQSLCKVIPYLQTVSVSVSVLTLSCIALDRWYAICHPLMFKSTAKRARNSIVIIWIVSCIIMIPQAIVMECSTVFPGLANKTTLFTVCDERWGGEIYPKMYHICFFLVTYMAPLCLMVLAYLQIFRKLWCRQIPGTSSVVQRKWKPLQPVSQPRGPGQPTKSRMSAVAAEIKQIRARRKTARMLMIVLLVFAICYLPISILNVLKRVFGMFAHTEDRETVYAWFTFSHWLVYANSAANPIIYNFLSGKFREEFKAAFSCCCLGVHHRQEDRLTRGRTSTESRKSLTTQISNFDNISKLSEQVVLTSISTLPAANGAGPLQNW

The term Ki denotes a measure of affinity in units of concentration, obtained from inhibition or displacement. With `O=C(c1cccc(F)c1-c1ncccn1)N1C[C@@H]2CC[C@H]1[C@H](Nc1cnc(C(F)(F)F)cn1)C2` [Example 80, (3-fluoro-2-(pyrimidin-2-yl)phenyl)((1S,4R,6R)-6-((5-(trifluoromethyl)pyrazin-2-yl)amino)-2-azabicyclo[2.2.2]octan-2-yl)methanone], the Ki worked out at 456 nM on human orexin 2 receptor, 7 nM at human orexin 1 receptor and 9 nM on rat orexin 1 receptor.
